Holding throughout (format): cell-based, human
One experiment deals with AMPK. Kind of experiment: Characterization of AMPK activation by Western blot in PC-3 and LNCaP cells (Dorsomorphin, siRNA). As for the experimental part:
(§1) To further confirm the compound 8c-induced activation of AMPK, PC-3 and LNCaP cells were incubated with the compound for 1 h and 24 hours in the presence of the AMPK inhibitor Dorsomorphin. […] Accordingly, ACC phosphorylation was increased at 1 h and 24 h and prevented by Dorsomorphin in both cell lines. AMPK inhibits mTORC1 through phosphorylation of Raptor on two well-conserved serine residues (ser722 and ser792) inducing cell-cycle arrest in response to an energy stress. To further support the 8c-induced AMPK activation, we determined Raptor phosphorylation on Ser792 in prostate cells.
(§2) Figure 5 AMPK activation by compound 8c in prostate cancer cells. (A) PC-3 and LNCaP cells were treated with vehicle, 25 µM compound 8c, 25 µM compound 8c + 5 μM Dorsomorphin (8c + D) or 5 μM Dorsomorphin (D), for 1 hour or 24 hours and levels of the phosphorylated AMPK (pAMPK), phosphorylated ACC (pACC), phosphorylated Raptor (pRaptor) forms and HIF1α were determined by Western blot. Upper panel, representative Western blot of three different experiments. β-tubulin (β-Tub) serves as a loading control. Lower panel, densitometric analyses of bands represented as the mean of the ratio pAMPK/AMPK or pACC/ACC. (B) Cell viability monitored by MTT assay in PC-3 and LNCaP cells treated with vehicle, 25 µM and 50 μM compound 8c alone or in the presence of 5 μM Dorsomorphin or transfected with control siRNA (siC) or α1AMPK-selective siRNA (siAMPK). (C) LNCaP cells were treated with vehicle, 25 µM compound 8c, 25 µM compound 8c + 5 μM Dorsomorphin (8c + D) or 5 μM Dorsomorphin (D), for 24 hours and levels of Androgen Receptor (AR), Prostate specific antigen (PSA) and Prostate specific membrane antigen (PSMA) were determined by Western blot.Values were normalized with the control and represent the mean ± SD of at least three independent experiments. *p < 0.05 and **p < 0.01 compared to control and ^#p < 0.05 and ^##p < 0.01 compared with 8c-treated group by the Student’s t-test.
AMPK is a heterotrimeric protein composed by catalytic (α) and regulatory (β and γ) subunits. In mammals, different isoforms of α, β and γ subunits can associate to produce up to 12 AMPK different combinations. […]
Figure 6 Phosphorylation of AMPK and ACC in prostate cells transfected with selective AMPKα1 or AMPKα2 siRNA. […] Levels of the phosphorylated AMPK (pAMPK), phosphorylated ACC (pACC) and their total forms were determined by Western blot. […]
Cells were lysed in Lysis buffer (50 mM Tris pH 7.4, 0.8 M NaCl, 5 mM MgCl2, 0.1% Triton X-100) containing Protease Inhibitor and Phosphatase inhibitor Cocktails (Roche, Basel, Switzerland). Protein concentrations were measured by BioRad™ protein assay kit (Richmond, CA, USA). […]
In general terms: A western blot detects proteins with antibodies after separation by electrophoresis.

Another experiment has as its system Androgen Receptor (AR). Kind of experiment: Androgen Receptor expression by Western blot in LNCaP cells. The note with it: 25 µM, 24 hours. As for the experimental part: as §2, with “t-test. […]” for “t-test.”
The subject of the next experiment is HIF-1A. The experiment can be described thus: HIF-1A expression by Western blot in PC-3 and LNCaP cells. Particulars: 25 µM. As for the experimental part: as §1
Figure 5 AMPK activation by compound 8c in prostate cancer cells. (A) PC-3 and LNCaP cells were treated with vehicle, 25 µM compound 8c, 25 µM compound 8c + 5 μM Dorsomorphin (8c + D) or 5 μM Dorsomorphin (D), for 1 hour or 24 hours and levels of the phosphorylated AMPK (pAMPK), phosphorylated ACC (pACC), phosphorylated Raptor (pRaptor) forms and HIF1α were determined by Western blot. Upper panel, representative Western blot of three different experiments. β-tubulin (β-Tub) serves as a loading control. […] (B) Cell viability monitored by MTT assay in PC-3 and LNCaP cells treated with vehicle, 25 µM and 50 μM compound 8c alone or in the presence of 5 μM Dorsomorphin or transfected with control siRNA (siC) or α1AMPK-selective siRNA (siAMPK). […]

With `O=C1Nc2ccccc2C1(F)Cc1ccc(-c2ccccc2)o1` (centres unmarked) [Compound 8c, 3-fluoro-3-((5-phenylfuran-2-yl)methyl)indolin-2-one], the “activation of AMPK at 24 hours” value with AMPK (PC-3 and LNCaP cells, 25 µM, 24 hours vs 1 hour) is “also seen at 24 hours, being even more robust that at 1 hour of treatment”. For the same compound, the “8c-induced AMPK phosphorylation with AMPKα1 subunit knocked down” value with AMPK (siRNA AMPKα1, 25 μM, 1 h) is on record as “almost totally blocked”. In addition, the “AMPK and ACC phosphorylation with AMPKα2 subunit silenced” value with AMPK (siRNA AMPKα2, 25 μM, 1 h) is “still was able to phosphorylate AMPK and ACC at a similar level than in non-silenced (siC) cells”. The “expression of AR” value in the experiment on Androgen Receptor (AR) is “markedly reduced the expression of AR”. Also, the “expression of HIF-1A” value with HIF-1A is “expression of HIF-1A was decreased”.
